# Test results from patent publication US20140113904A1, “TREATMENT OF CANCER WITH TOR KINASE INHIBITORS” (SIGNAL PHARMACEUTICALS, LLC, priority 2012, published 2014).
# Legend:
# [1] = 5-day tolerability study of Compound 1 in PC3 tumor-bearing mice (body weight); type: in vivo, SCID mice
# Protocol: Plasma and tumor samples were collected 24 hours after the last dose in each dose group.
# Mice were monitored daily for clinical signs and body weight changes. At the end of the study, mice were euthanized and plasma and tumor samples were collected for PK/PD determination. PD markers, pS6 and pAkt, were measured using MSD technology.
# Initial body weights were recorded prior to the initiation of treatment using a digital scale. The percent body weight change during the course of the study was calculated using initial body weight measurements. Body weights of each animal were measured twice a week at the same time that tumor measurements were taken. Body weights were measured more frequently if significant decreases were noted during the course of the study.
# In preparation for xenograft studies, a 5-day tolerability study was performed. […] The animals in the 50 mg/kg dose group lost >17% of the starting body weight by Day 5 (24 hours after the 4th dose). The animals in this group were euthanized. By Day 6 (24 hours after the 5th dose), the animals in the 25 mg/kg and 10 mg/kg groups lost 9% and 4%, respectively, of the starting body weight.
# [2] = test system: PRAS40(T246); test: Phospho-PRAS40(T246) in PC3 cell lysates, Luminex multiplex; type: cell-based, human; settings: PC3, 1 hour exposure; read-out: p-PRAS40 (T246) IC50
# Text: The direct substrate for TORC1 was 4E-BP 1(T46) and indirect downstream substrate was S6RP(S235/S236). The direct substrate for TORC2 was Akt(S473) and indirect downstream substrates measured were GSK3β(S9) and PRAS40(T246). Additionally, the phosphorylation status of Akt(T308), a phosphorylation site for PDK1 was monitored.
# The multiplex Luminex assay format differs from conventional enzyme-linked immunosorbent assay (ELISA) in that the multiplex capture antibody is attached to a polystyrene bead whereas the ELISA capture antibody is attached to the microplate well. The use of the suspension bead-based technology enables the multiplexing capabilities of the Luminex assays. The xMAP® technology uses 5.6 micron polystyrene microspheres, which are internally dyed with red and infrared fluorophores of differing intensities. Each bead is given a unique number, or bead region, allowing differentiation of one bead from another. Beads covalently bound to different specific antibodies can be mixed in the same assay, utilizing a 96-well microplate format. At the completion of the sandwich immunoassay, beads can be read, using the Luminex 100™ or Luminex 200 detection system, in single-file by dual lasers for classification and quantification of each analyte. […]
# [3] = test system: PC3 cells; test: Cell cycle distribution by flow cytometry-based PI staining; parameters: species or system human
# Protocol: PC3 tumor cells were plated at 250,000 cells per well in a 6-well plate and allowed to equilibrate overnight in 5% CO2 at 37° C. For treatment, the media was aspirated to remove dead/floating cells before addition of 3 mL of media with or without compound. […] The cells were then processed for cell cycle analysis. The media was transferred into a 15 mL tube. The cells were trypsinized and transferred to the same tube. The cells were then spun at 12 000 rpm, re-suspended in 500 μL propidium iodide (PI) staining buffer, and incubated at room temperature in the dark for 30 minutes. The sample was then analyzed on a FACSCaliber instrument. The cell cycle experiments were performed on two independent occasions.
# The raw data collected from BD FACS Calibur was analyzed by cell cycle software ModFit LT (Verity Software House, Inc). The histogram was generated using the automatic analysis setting. All numbers generated by ModFit LT were transferred to Microsoft Excel and graphed.
# PC3 cells display an aneuploid phenotype which is evident in the comparison with HeLa cells.
smiles,measurement,setting,value
"CO[C@H]1CC[C@H](N2C(=O)CNc3ncc(-c4ccc(C(C)(C)O)nc4)nc32)CC1 [Compound 1, 7-(6-(2-hydroxypropan-2-yl)pyridin-3-yl)-1-((1r,4r)-4-methoxycyclohexyl)-3,4-dihydropyrazino-[2,3-b]pyrazin-2(1H)-one]",loss of starting body weight,"[1]; 10 mg/kg QD oral, Day 6 (24 hours after the 5th dose)",4%
same,loss of starting body weight,"[1]; 25 mg/kg QD oral, Day 6 (24 hours after the 5th dose)",9%
same,loss of starting body weight,"[1]; 50 mg/kg QD oral, Day 5 (24 hours after the 4th dose)",> 17%
same,IC50,[2],140 nM
same,% G1,"[3]; 0.5 μM, 24 hours",81.1%
same,% G1a,"[3]; 0.5 μM, 24 hours",79%
same,% G1,"[3]; 1 μM, 24 hours",88.6%
same,% G1a,"[3]; 1 μM, 24 hours",84.8%
same,% G1,"[3]; 5 μM, 24 hours",89.2%
same,% G1a,"[3]; 5 μM, 24 hours",83.9%
same,induction of apoptosis (sub-G1 peak),[3]; 24 hours,did not appear to be induction of apoptosis
same,effect on cell cycle distribution,[3]; concentrations relevant to growth inhibition,capable of inducing a G1 arrest
